In patent US8748411B2, “Antineoplastic compounds and pharmaceutical compositions thereof” (Centro de Ingenieria Genetica y Biotechnologia, priority 2005, dated 2014):
Like-named read-outs stand apart in the source and are kept apart here. Where a SMILES comes first, the peptide text is derived from it.

Columns and labels:
[1] = test system: Jurkat cells; conditions: cited from earlier work
[2] = molecular target: oncoprotein E7 from Human Papilloma Virus type 16 as GST fusion protein (E7-GST), phosphorylated by CK2 enzyme (Human papillomavirus type 16, UniProt P03129); format: biochemical; conditions: read-out: Inhibitory concentration 50 (IC50)
[3] = test system: CK2 optimized consensus substrate sequence RRREEETEEE; test: In vitro CK2 phosphorylation of the optimized consensus substrate peptide […], filter radioactivity; format: biochemical; conditions: read-out: Inhibitory concentration 50 (IC50)
Procedure: The assay consists in performing an in vitro phosphorylation reaction, using as the substrate the sequence […] (SEQ. ID NO. 1) widely accepted as an optimized consensus phosphorylation domain for the CK2 substrates.
Before the enzymatic reaction the substrate peptide was preincubated one hour at 37° C., with different concentrations of the chemical compounds. The reaction is carried out in a mixture consisting of 50 μl Tris:HCL 25 mM pH 7.5 buffer, 1 μCi of ^32P-γATP, 100 μM ATP, 40 μl E7-GST containing resin, 0.2 M NaCl, 10 mM MgCl and 1 unit of the CK2 enzyme (Promega), allowing it to proceed for 10 minutes at 37° C. After the reaction 5 μl of the reaction mixture were applied to a Whatmann PE-81 paper filter and washed four times with 10 mM H3PO4, finally the paper associated radioactivity was measured and the cpm value for each sample was directly correlated with the CK2 enzymatic activity.
The IC50 values were estimated using each dosage-effect curve.

[4] = test system: H-125 cells; test: Cytotoxic effect on cultured human tumour cells (MTS, 72 h); format: cell-based; conditions: read-out: Inhibitory concentration 50 (IC50)
Procedure: H-125 cells from a human Non Small Cells Lung Carcinoma were soiled in 96 well plates (Costar) to a 2×10^4 cell/ml density in Dulbecco (DMEM) media (Gibco) and supplemented with Foetal Calf Serum (Gibco). 24 hours later the chemical compounds described herein were added to the cultured media in a range between 0.5 and 100 nM, incubating the mixture for 72 h at 37° C. in 5% CO2, at the end 20 μl of a 1.90 mg/ml MTS solution was added. […] The results are evaluated as growth percentage to controls without any compound, and the IC50 values were estimated using each dosage-effect curve.

[5] = test system: H-125 cells tumour implant; design: species or system BalbC nude mice; conditions: mouse, in vivo
[6] = substrate peptide preincubated 1 h at 37° C., reaction 10 minutes at 37° C., 100 μM ATP
[7] = NCI-H125, H-125 cells, 72 h, MTS, absorbance 492 nm

Chain of oncoprotein E7 from Human Papilloma Virus type 16 as GST fusion protein (E7-GST), phosphorylated by CK2 enzyme (P03129 whole entry, looked up, the tested form may be a part): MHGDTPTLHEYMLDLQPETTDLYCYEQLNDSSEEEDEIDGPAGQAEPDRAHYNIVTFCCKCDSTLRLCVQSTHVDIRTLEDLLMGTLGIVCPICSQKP

Row | SMILES | apoptosis and caspase dependent degradation induction [1] | IC50 [2] | IC50 [3] | IC50 ([4]; NCI-H125, 72 h) | IC50 [3, 6] | IC50 [4, 7] | antitumoral response [5]
1 | Brc1c(Br)c(Br)c2[nH]nnc2c1Br [TBB, 4,5,6,7-tetrabromotriazole] | potent apoptosis and caspase dependent degradation inducer |  |  |  |  |  | 
2 | CC(Br)C(=O)NCC(=O)NCC(=O)O (stereo not drawn) [C31418] |  | 0.032 ± 0.005 µM | 0.072 ± 0.005 µM | 0.123 ± 0.015 µM |  |  | 
3 | CN(CC(=O)O)C(=O)CNC(=O)OCc1ccccc1 [C31417] (HELM PEPTIDE1{[O=C(OCc1ccccc1)[*:2]].G.[Sar]}$$$$V2.0) |  | 0.028 ± 0.011 µM | 0.078 ± 0.011 µM | 0.118 ± 0.021 µM |  |  | 
4 | NNC(=O)CC(O)C(=O)NN (stereo not drawn) [C34434] |  | 0.028 ± 0.005 µM | 0.078 ± 0.001 µM | 0.108 ± 0.021 µM |  |  | 
5 | N#CC(Nc1ccccc1C(N)=O)c1ccccc1 (stereo not drawn) [C34436] |  | 0.03 ± 0.002 µM | 0.066 ± 0.002 µM | 0.116 ± 0.022 µM |  |  | 
6 | CC(C)(C)NC(=O)NCCCl [C30411] |  | 0.027 ± 0.01 µM | 0.066 ± 0.012 µM | 0.126 ± 0.015 µM |  |  | 
7 | O=C(O)c1cc(O)nc(SCc2ccc(Cl)cc2Cl)n1 [C34432] |  | 0.029 ± 0.007 µM | 0.067 ± 0.007 µM | 0.127 ± 0.007 µM |  |  | 
8 | Clc1cc(Cl)cc(Nc2nc(C(Cl)(Cl)Cl)nc(C(Cl)(Cl)Cl)n2)c1 [C30410] |  | 0.04 ± 0.009 µM | 0.054 ± 0.007 µM | 0.114 ± 0.007 µM |  |  | 
9 | NCC(=O)NCC(=O)NCC(=O)NCC(=O)O [C31416] (H-GGGG-OH) |  | 0.039 ± 0.006 µM |  |  | 0.069 ± 0.006 µM | 0.109 ± 0.006 µM | 
10 | N#CCNC(=O)NCCCl [C30405] |  | 0.027 ± 0.01 µM | 0.057 ± 0.01 µM | 0.104 ± 0.012 µM |  |  | 
11 | NCCC(=O)NCc1ccccc1 [C34433] |  | 0.026 ± 0.01 µM | 0.076 ± 0.008 µM | 0.116 ± 0.018 µM |  |  | 
12 | N=C(N)C(NC=O)C(=O)NCc1ccccc1 (stereo not drawn) [C30414] |  | 0.023 ± 0.009 µM | 0.068 ± 0.009 µM | 0.118 ± 0.009 µM |  |  | 
13 | C/C(COc1ccccc1)=N/NC(N)=S [C30415] |  | 0.033 ± 0.008 µM | 0.072 ± 0.01 µM | 0.112 ± 0.01 µM |  |  | 
14 | O=C(O)CCNC(=O)NCCC(=O)O [C30404] |  | 0.02 ± 0.008 µM | 0.061 ± 0.008 µM | 0.115 ± 0.018 µM |  |  | 
15 | NCCC(=O)NCC(=O)NCC(=O)O [C31420] (HELM PEPTIDE1{[bAla].G.G}$$$$V2.0) |  | 0.025 ± 0.007 µM | 0.055 ± 0.011 µM | 0.125 ± 0.01 µM |  |  | 
16 | O=C(NCO)NC1NC(=O)NC1=O (stereo not drawn) [C30409] |  | 0.031 ± 0.006 µM | 0.055 ± 0.006 µM | 0.104 ± 0.006 µM |  |  | 
17 | O=S(=O)(O)Nc1cnc(O)nc1O [C34429] |  | 0.021 ± 0.012 µM | 0.061 ± 0.004 µM | 0.131 ± 0.004 µM |  |  | 
18 | O=C1NC(=O)C(CS(=O)(=O)Nc2cccc(C(F)(F)F)c2)N1 (stereo not drawn) [C34430] |  | 0.03 ± 0.004 µM | 0.07 ± 0.004 µM | 0.14 ± 0.014 µM |  |  | 
19 | CC(O)CNc1nc(N)nc(O)c1[N+](=O)[O-] (stereo not drawn) [C34438] |  | 0.031 ± 0.001 µM | 0.081 ± 0.007 µM | 0.111 ± 0.017 µM |  |  | 
20 | CC(C)NC(=S)Nc1c(N)nc(O)nc1O [C30402] |  | 0.03 ± 0.005 µM |  |  | 0.074 ± 0.007 µM | 0.098 ± 0.007 µM | 

Row | SMILES | apoptosis and caspase dependent degradation induction [1] | IC50 [2] | IC50 [3] | IC50 ([4]; NCI-H125, 72 h) | IC50 [3, 6] | IC50 [4, 7] | antitumoral response [5]
21 | CC1=C/C(=N\NC(N)=O)CC(C)(C)C1 [C30401] |  | 0.026 ± 0.011 µM | 0.062 ± 0.011 µM | 0.103 ± 0.021 µM |  |  | 
22 | O=C(O)CNC(=S)C(=S)NCC(=O)O [C32425] |  | 0.035 ± 0.003 µM | 0.065 ± 0.013 µM | 0.115 ± 0.012 µM |  |  | significant antitumoral response
23 | CCOC(=O)c1cc[nH]c1CC(=O)NN [C34440] |  | 0.026 ± 0.004 µM | 0.056 ± 0.004 µM | 0.136 ± 0.032 µM |  |  | 
24 | CC(C(=O)NCC(O)CO)n1ccnc1[N+](=O)[O-] (stereo not drawn) [C31423] |  | 0.026 ± 0.008 µM | 0.076 ± 0.004 µM | 0.106 ± 0.009 µM |  |  | 
25 | CC(C)(CS(C)(=O)=O)NC(=O)NCCCl [C30413] |  | 0.024 ± 0.009 µM | 0.064 ± 0.011 µM | 0.13 ± 0.011 µM |  |  | 
26 | NC(CC(=O)NC(=O)OCc1ccccc1)C(=O)O (stereo not drawn) [C34435] |  | 0.034 ± 0.003 µM | 0.064 ± 0.006 µM | 0.124 ± 0.016 µM |  |  | 
27 | OCCNCCCNc1ccnc2cc(Cl)ccc12 [C34428] |  | 0.025 ± 0.007 µM | 0.065 ± 0.01 µM | 0.165 ± 0.012 µM |  |  | 
28 | C/C(Cc1c[nH]c2ccccc12)=N\NC(N)=S [C30406] |  | 0.032 ± 0.007 µM | 0.06 ± 0.007 µM | 0.097 ± 0.017 µM |  |  | 
29 | CCCC(NC(=O)CNC(=O)CN)C(=O)O (stereo not drawn) [C31424] (HELM PEPTIDE1{G.G.[CCCC(N[*:1])C(=O)O]}$$$$V2.0) |  | 0.032 ± 0.013 µM | 0.062 ± 0.001 µM | 0.162 ± 0.011 µM |  |  | 
30 | CC(C)(NC(=O)NCCCl)c1ccccc1 [C30412] |  | 0.03 ± 0.003 µM | 0.071 ± 0.005 µM | 0.091 ± 0.015 µM |  |  | 
31 | NNC(=O)CNc1cccc(I)c1 [C31422] |  | 0.024 ± 0.005 µM | 0.074 ± 0.005 µM | 0.114 ± 0.005 µM |  |  | 
32 | CSc1nc(N)nc2c1ncn2C1CC(CO)C(O)C1O (stereo not drawn) [C34439] |  | 0.033 ± 0.005 µM | 0.063 ± 0.012 µM | 0.123 ± 0.025 µM |  |  | 
33 | Cn1c(CCNC(=N)CSS(=O)(=O)O)nc2ccccc21 [C34437] |  | 0.027 ± 0.004 µM | 0.071 ± 0.009 µM | 0.131 ± 0.009 µM |  |  | 
34 | C/C=C/CC/C(=N\NC(N)=O)c1ccccc1 [C30408] |  | 0.029 ± 0.002 µM | 0.079 ± 0.005 µM | 0.119 ± 0.008 µM |  |  | 
35 | CCCCNC(=O)NCc1ccco1 [C30403] |  | 0.034 ± 0.009 µM | 0.058 ± 0.009 µM | 0.128 ± 0.009 µM |  |  | 
36 | NCCNCCNCCNCCN [C33426] |  | 0.029 ± 0.008 µM | 0.079 ± 0.009 µM | 0.109 ± 0.019 µM |  |  | significant antitumoral response
37 | O=C(NNCCO)c1ccncc1 [C34431] |  | 0.032 ± 0.006 µM | 0.055 ± 0.003 µM | 0.155 ± 0.023 µM |  |  | 
38 | NNC(=O)CNc1ccc(F)c(C(F)(F)F)c1 [C31421] |  | 0.03 ± 0.008 µM | 0.05 ± 0.008 µM | 0.12 ± 0.018 µM |  |  | 
39 | NC(=S)NN=CCn1ccc(=O)n(CC=NNC(N)=S)c1=O [C31419] |  | 0.03 ± 0.004 µM | 0.06 ± 0.008 µM | 0.132 ± 0.018 µM |  |  | 
